Reference: ChEMBL document CHEMBL1157432, “Effect of linkage geometry on biological activity in thiourea- and guanidine-substituted acridines and platinum-acridines” (Bioorg Med Chem Lett, 2008)

Columns and labels:
HL-60 = assay: Cytotoxicity against human HL60 cells after 72 hrs by MTS method; format: functional, cell-based; conditions: HL-60, 72 h
NCI-H460 = assay: Cytotoxicity against human NCI-H460 cells after 72 hrs by MTS method; format: functional, cell-based; conditions: NCI-H460, 72 h
[1] = Dissociation constant, pKa of the compound; format: physicochemical

SMILES: CNC(=N)N(C)CCNC(=O)c1cccc2cc3ccccc3nc12
- IC50 (HL-60): 8.4 µM
- IC50 (NCI-H460): > 100 µM

SMILES: CNC(=S)N(C)CCNC(=O)c1cccc2cc3ccccc3nc12
- IC50 (HL-60): > 100 µM
- IC50 (NCI-H460): 30.9 µM

SMILES: CNC(=S)N(C)CCNc1c2ccccc2nc2ccccc12 [ACRAMTU]
- pKa [1]: 9

SMILES: CNC(=N)N(C)CCNc1c2ccccc2nc2ccccc12
- IC50 (HL-60): 79.7 µM
- IC50 (NCI-H460): 10.3 µM
- pKa [1]: 9
